Data: US12570642B2, “GLP-IR modulating compounds” (Gilead Sciences, Inc., priority 2021, dated 2026)

Target: GLP-1R (Homo sapiens, UniProt P43220)
Assay: GLP-1R Activation - cAMP Assay
Format: cell-based
Settings: cAMP increase in CHO cells stably expressing GLP-1R; each compound run on one of the two cAMP assays (Assay 1 or Assay 2, not specified)
Outline: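 CHO cells stably expressing GLP-1R, plated at 1,000 cells/well overnight, then equilibrated 1 h in HBSS with 20 mM Hepes and 0.1% BSA. Agonist added as 10-point dose response for 30 min at 37 °C. cAMP measured by HTRF (Cisbio Gs Dynamic kit); EC50 from sigmoidal fit.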

Sequence of GLP-1R (P43220 24-463): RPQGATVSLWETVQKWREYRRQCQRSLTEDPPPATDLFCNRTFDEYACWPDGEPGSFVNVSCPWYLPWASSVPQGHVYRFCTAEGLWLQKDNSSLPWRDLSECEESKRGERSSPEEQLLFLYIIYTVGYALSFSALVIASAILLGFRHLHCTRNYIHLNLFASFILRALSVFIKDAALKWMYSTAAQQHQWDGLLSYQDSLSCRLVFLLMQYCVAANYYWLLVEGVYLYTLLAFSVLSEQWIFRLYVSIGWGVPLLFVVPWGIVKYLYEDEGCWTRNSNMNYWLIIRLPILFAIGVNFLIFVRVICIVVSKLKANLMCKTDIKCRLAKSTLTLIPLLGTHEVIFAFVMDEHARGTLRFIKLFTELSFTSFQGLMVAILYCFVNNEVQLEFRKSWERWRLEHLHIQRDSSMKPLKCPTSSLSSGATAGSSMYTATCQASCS

Row | SMILES | EC50 [nM]
1 | CC1(C)COC[C@H]1n1c(Cc2ccc(-c3cccc(OCc4ccc(Cl)cc4F)n3)cc2F)nc2c(F)cc(C(=O)O)cc21 [Example 329, (S)-2-(4-(6-((4-chloro-2-fluorobenzyl)oxy)pyridin-2-yl)-2-fluorobenzyl)-1-(4,4-dimethyltetrahydrofuran-3-yl)-4-fluoro-1H-benzo[d]imidazole-6-carboxylic acid] | 0.062
2 | CC1(C)COC[C@H]1n1c(Cc2ccc(-c3cccc(OCc4ccc(Cl)cc4F)n3)cc2F)nc2ccc(C(=O)O)cc21 [Example 331, (S)-2-(4-(6-((4-chloro-2-fluorobenzyl)oxy)pyridin-2-yl)-2-fluorobenzyl)-1-(4,4-dimethyltetrahydrofuran-3-yl)-1H-benzo[d]imidazole-6-carboxylic acid] | 0.218
3 | CC1(C)COC[C@H]1n1c(Cc2ccc(-c3ccc(F)c(OCc4ccc(Cl)cc4F)n3)cc2F)nc2ccc(C(=O)O)cc21 [Example 332, (S)-2-(4-(6-((4-chloro-2-fluorobenzyl)oxy)-5-fluoropyridin-2-yl)-2-fluorobenzyl)-1-(4,4-dimethyltetrahydrofuran-3-yl)-1H-benzo[d]imidazole-6-carboxylic acid] | 0.159
4 | CC1(C)COC[C@H]1n1c(Cc2c(F)cc(-c3ccc(F)c(OCc4ccc(Cl)cc4F)n3)c(F)c2F)nc2c(F)cc(C(=O)O)cc21 [Example 336, (S)-2-(4-(6-((4-chloro-2-fluorobenzyl)oxy)-5-fluoropyridin-2-yl)-2,3,6-trifluorobenzyl)-1-(4,4-dimethyltetrahydrofuran-3-yl)-4-fluoro-1H-benzo[d]imidazole-6-carboxylic acid] | 0.016
5 | COc1cc(Cl)ncc1COc1nc(-c2cc(F)c(Cc3nc4c(F)cc(C(=O)O)cc4n3[C@@H]3COCC3(C)C)c(F)c2F)ccc1F [Example 339, (S)-2-(4-(6-((6-chloro-4-methoxypyridin-3-yl)methoxy)-5-fluoropyridin-2-yl)-2,3,6-trifluorobenzyl)-1-(4,4-dimethyltetrahydrofuran-3-yl)-4-fluoro-1H-benzo[d]imidazole-6-carboxylic acid] | 0.013
6 | CC1(C)COCC1n1c(Cc2cc(F)c(-c3ccnc(OCc4ccc(Cl)cc4F)n3)cc2Cl)nc2c(F)cc(C(=O)O)cc21 (stereo not drawn) [Example 343, 2-(2-chloro-4-(2-((4-chloro-2-fluorobenzyl)oxy)pyrimidin-4-yl)-5-fluorobenzyl)-1-(4,4-dimethyltetrahydrofuran-3-yl)-4-fluoro-1H-benzo[d]imidazole-6-carboxylic acid] | 0.113
7 | CC1(C)COCC1n1c(Cc2cc(F)c(-c3ccnc(OCc4ccc(C(F)F)cc4F)n3)cc2Cl)nc2c(F)cc(C(=O)O)cc21 (stereo not drawn) [Example 344, 2-(2-chloro-4-(2-((4-(difluoromethyl)-2-fluorobenzyl)oxy)pyrimidin-4-yl)-5-fluorobenzyl)-1-(4,4-dimethyltetrahydrofuran-3-yl)-4-fluoro-1H-benzo[d]imidazole-6-carboxylic acid] | 0.147
8 | CC1(C)COCC1n1c(Cc2cc(F)c(-c3ccc(F)c(OCc4ccc(C#N)cc4F)n3)cc2Cl)nc2c(F)cc(C(=O)O)cc21 (stereo not drawn) [Example 346, 2-(2-chloro-4-(6-((4-cyano-2-fluorobenzyl)oxy)-5-fluoropyridin-2-yl)-5-fluorobenzyl)-1-(4,4-dimethyltetrahydrofuran-3-yl)-4-fluoro-1H-benzo[d]imidazole-6-carboxylic acid] | 0.075
9 | CC1(C)COCC1n1c(Cc2cc(F)c(-c3ccc(F)c(OCc4ccc(Cl)cc4F)n3)cc2F)nc2c(F)cc(C(=O)O)cc21 (stereo not drawn) [Example 347, 2-(4-(6-((4-chloro-2-fluorobenzyl)oxy)-5-fluoropyridin-2-yl)-2,5-difluorobenzyl)-1-(4,4-dimethyltetrahydrofuran-3-yl)-4-fluoro-1H-benzo[d]imidazole-6-carboxylic acid] | 0.132
10 | CO[C@H](C)Cn1c(Cc2cc(F)c(-c3cccc(OCc4ccc(-n5ccnn5)nc4)n3)cc2F)nc2c(F)cc(C(=O)O)cc21 [Example 352, (R)-2-(4-(6-((6-(1H-1,2,3-triazol-1-yl)pyridin-3-yl)methoxy)pyridin-2-yl)-2,5-difluorobenzyl)-4-fluoro-1-(2-methoxypropyl)-1H-benzo[d]imidazole-6-carboxylic acid] | 0.535
11 | CO[C@H](C)Cn1c(Cc2cc(F)c(-c3cccc(OCc4cc(F)c(Cl)cc4F)n3)cc2F)nc2c(F)cc(C(=O)O)cc21 [Example 353, (R)-2-(4-(6-((4-chloro-2,5-difluorobenzyl)oxy)pyridin-2-yl)-2,5-difluorobenzyl)-4-fluoro-1-(2-methoxypropyl)-1H-benzo[d]imidazole-6-carboxylic acid] | 1.18

The next lines start with the values.

Row | EC50 [nM] | SMILES
12 | 0.011 | CC1(C)COC[C@H]1n1c(Cc2ccc(-c3ccc(F)c(OCc4ccc(C#N)cc4F)n3)cc2F)nc2ccc(C(=O)O)cc21 [Example 330]
13 | 0.067 | Cc1cc(Cc2nc3c(F)cc(C(=O)O)cc3n2[C@@H]2COCC2(C)C)c(Cl)cc1-c1ccc(F)c(OCc2ccc(Cl)cc2F)n1 [Example 334, (S)-2-(2-chloro-4-(6-((4-chloro-2-fluorobenzyl)oxy)-5-fluoropyridin-2-yl)-5-methylbenzyl)-1-(4,4-dimethyltetrahydrofuran-3-yl)-4-fluoro-1H-benzo[d]imidazole-6-carboxylic acid]
14 | 0.306 | CC1(C)COC[C@H]1n1c(Cc2c(F)cc(-c3ccc(F)c(OCc4ccc(Cl)cc4F)n3)c(F)c2F)nc2ccc(C(=O)O)cc21 [Example 335, (S)-2-(4-(6-((4-chloro-2-fluorobenzyl)oxy)-5-fluoropyridin-2-yl)-2,3,6-trifluorobenzyl)-1-(4,4-dimethyltetrahydrofuran-3-yl)-1H-benzo[d]imidazole-6-carboxylic acid]
15 | 0.025 | CC1(C)COC[C@H]1n1c(Cc2ccc(-c3ccc(F)c(OCc4ccc(C#N)cc4F)n3)cc2F)nc2c(F)cc(C(=O)O)cc21 [Example 337, (S)-2-(4-(6-((4-cyano-2-fluorobenzyl)oxy)-5-fluoropyridin-2-yl)-2-fluorobenzyl)-1-(4,4-dimethyltetrahydrofuran-3-yl)-4-fluoro-1H-benzo[d]imidazole-6-carboxylic acid]
16 | 0.005 | COc1cc(Cl)ncc1COc1nc(-c2cc(F)c(Cc3nc4c(F)cc(C(=O)O)cc4n3[C@@H]3COCC3(C)C)cc2F)ccc1F [Example 340, (S)-2-(4-(6-((6-chloro-4-methoxypyridin-3-yl)methoxy)-5-fluoropyridin-2-yl)-2,5-difluorobenzyl)-1-(4,4-dimethyltetrahydrofuran-3-yl)-4-fluoro-1H-benzo[d]imidazole-6-carboxylic acid]
17 | 0.024 | COc1cc(Cl)ncc1COc1nc(-c2cc(F)c(Cc3nc4ccc(C(=O)O)cc4n3[C@@H]3COCC3(C)C)c(F)c2F)ccc1F [Example 341, (S)-2-(4-(6-((6-chloro-4-methoxypyridin-3-yl)methoxy)-5-fluoropyridin-2-yl)-2,3,6-trifluorobenzyl)-1-(4,4-dimethyltetrahydrofuran-3-yl)-1H-benzo[d]imidazole-6-carboxylic acid]
18 | 0.012 | COc1cc(Cl)ncc1COc1nc(-c2cc(F)c(Cc3nc4ccc(C(=O)O)cc4n3[C@@H]3COCC3(C)C)cc2F)ccc1F [Example 342, (S)-2-(4-(6-((6-chloro-4-methoxypyridin-3-yl)methoxy)-5-fluoropyridin-2-yl)-2,5-difluorobenzyl)-1-(4,4-dimethyltetrahydrofuran-3-yl)-1H-benzo[d]imidazole-6-carboxylic acid]
19 | 0.197 | CC1(C)COCC1n1c(Cc2cc(F)c(-c3ccc(F)c(OCc4ccc(C#N)cc4F)n3)cc2Cl)nc2ccc(C(=O)O)cc21 (stereo not drawn) [Example 345, 2-(2-chloro-4-(6-((4-cyano-2-fluorobenzyl)oxy)-5-fluoropyridin-2-yl)-5-fluorobenzyl)-1-(4,4-dimethyltetrahydrofuran-3-yl)-1H-benzo[d]imidazole-6-carboxylic acid]
20 | 0.55 | CC1(C)COCC1n1c(Cc2cc(F)c(-c3nccc(OCc4ccc(Cl)cc4F)n3)cc2F)nc2c(F)cc(C(=O)O)cc21 (stereo not drawn) [Example 348, 2-(4-(4-((4-chloro-2-fluorobenzyl)oxy)pyrimidin-2-yl)-2,5-difluorobenzyl)-1-(4,4-dimethyltetrahydrofuran-3-yl)-4-fluoro-1H-benzo[d]imidazole-6-carboxylic acid]
21 | 0.042 | COC(=O)N1Cc2ccc(COc3cccc(-c4cc(F)c(Cc5nc6c(F)cc(C(=O)O)cc6n5C[C@@H]5CCO5)cc4F)n3)cc2C1 [Example 349, 2-[[2,5-difluoro-4-[6-[(2-methoxycarbonylisoindolin-5-yl)methoxy]-2-pyridyl]phenyl]methyl]-7-fluoro-3-[[(2S)-oxetan-2-yl]methyl]benzimidazole-5-carboxylic acid]
22 | 0.171 | COCCn1c(Cc2cc(F)c(-c3cccc(OCc4ccc(-n5ccnn5)nc4)n3)cc2Cl)nc2c(F)cc(C(=O)O)cc21 [Example 350, 2-(4-(6-((6-(1H-1,2,3-triazol-1-yl)pyridin-3-yl)methoxy)pyridin-2-yl)-2-chloro-5-fluorobenzyl)-4-fluoro-1-(2-methoxyethyl)-1H-benzo[d]imidazole-6-carboxylic acid]
23 | 0.074 | COCCn1c(Cc2cc(F)c(-c3cccc(OCc4ccc(C#N)cc4F)n3)cc2Cl)nc2c(F)cc(C(=O)O)cc21 [Example 351, 2-(2-chloro-4-(6-((4-cyano-2-fluorobenzyl)oxy)pyridin-2-yl)-5-fluorobenzyl)-4-fluoro-1-(2-methoxyethyl)-1H-benzo[d]imidazole-6-carboxylic acid]
24 | 0.528 | CO[C@H](C)Cn1c(Cc2cc(F)c(-c3cccc(OCc4ccc(-n5ccnn5)cc4F)n3)cc2F)nc2c(F)cc(C(=O)O)cc21 [Example 354, (R)-2-(2,5-difluoro-4-(6-((2-fluoro-4-(1H-1,2,3-triazol-1-yl)benzyl)oxy)pyridin-2-yl)benzyl)-4-fluoro-1-(2-methoxypropyl)-1H-benzo[d]imidazole-6-carboxylic acid]
